Assay results: patent publication US20210341496A1, “Systems and Methods for Detecting or Monitoring Insulin” (The Florida State University Research Foundation, Inc., priority 2020, published 2021)

Test system: murine islets
Assay: Synchronization of GSIS from grouped islets by periodic CCh pulses
Type: cell-based
Settings: 5 islets, constant 11 mM glucose, 30 s every 5 min
Description: CCh, an M3R agonist, synchronizes glucose-induced islet activity as measured by synchronized oscillations of [Ca^2+]i levels. Because no recording of insulin release has been reported after delivery of CCh pulses, synchronized hormone secretion had not previously been verified. Using the newly-developed anisotropy method, it was tested whether GSIS from grouped islets can be entrained during periodic application of CCh.
For this experiment, reagent reservoirs connected to inlets 1 and 2 contained 11 mM glucose and 10 μM CCh in 11 mM glucose, respectively. A group of 5 islets were loaded into the islet chamber that had been filled with 11 mM glucose. After sealing the chamber, islets were continuously perfused with constant 11 mM glucose from inlet 1. CCh pulses were generated by switching the flow from inlet 1 to inlet 2. Pulse profiles consisted of 5 pulses (denoted by ‘x’ in FIG. 10A and FIG. 10B) each delivered for 30 s every 5 min. Considering broadening of each pulse (FIG. 3C), islets were exposed to an effective [CCh] of 4.7 μM.
In FIG. 10A and FIG. 10B, the glucose level remained constant at 11 mM. In the islet chamber during each experiment were 5 islets. In FIG. 10A, GSIS was synchronized by a train of 5 CCh pulses. Each 30 second pulse, ‘x’, was delivered every 5 minutes from 5 to 25 minutes. Numbered insulin peaks highlight oscillations likely stimulated by a CCh pulse. […]

## C[N+](C)(C)CCOC(N)=O [CCh, carbachol]
5 pulses of 10 μM CCh (effective 4.7 μM)
  insulin spikes after CCh pulses, average of final 3 spikes: 78±12 pg min^−1 islet^−1
Train of 5 CCh pulses
  synchronization of GSIS: synchronized
